Where two headings read alike, the source gives them in different places.
Experiments:
Assay type in all cases: cell-based
[1] = tested on: Aspergillus niger ATCC16404; assay: microbe, parasite or virus in culture
Method: (§1) Compounds 1–8 were tested for antifungal activities against Aspergillus fumigatus ATCC204305 and Aspergillus niger ATCC16404 using broth microdilution antifungal susceptibility testing, according to previously published protocol. In the experiments, the RPMI-1640 medium containing 10.4 g/L of RPMI-1640 medium (R8755; Sigma, St. Louis, MO, USA), 6.7 g/L of Yeast Nitrogen Base (YNB; Becton, Dickinson and Company, Franklin Lakes, NJ, USA), 1.8% (w/v) glucose, and 40 mM HEPES (pH = 7.1) was used as culture medium. The inoculum per well for a 96-well microplate was 2 × 10^4 fresh conidia/mL (150 µL/well), which were incubated for 24 h at 37 ℃. The minimal inhibitory concentration (MIC) in the assay were performed using resazurin at 0.002% (w/v) of final concentration.

[2] = tested on: Aspergillus fumigatus ATCC204305; assay: microbe, parasite or virus in culture
Method: as §1

[3] = tested on: small cell lung cancer cell line H446; assay: Cytotoxicity, MTT assay; settings: printed H466, MTT, positive control
[4] = tested on: non-small cell lung cancer cell line A549; assay: Cytotoxicity, MTT assay; settings: positive control
[5] = tested on: small cell lung cancer cell line H1688; assay: Cytotoxicity, MTT assay; settings: positive control
[6] = tested on: human embryonic lung fibroblast cell MRC-5; assay: Cytotoxicity, MTT assay; settings: MRC-5, MTT, positive control

| SMILES | MIC ([1]; ATCC16404, Table S1, broth microdilution, RPMI-1640 + YNB + 1.8% glucose + 40 mM HEPES pH 7.1, 2 × 10^4 conidia/mL, 24 h, 37 °C, resazurin 0.002%, read-out: MIC) [µM] | MIC ([1]; ATCC16404, one range given for A. fumigatus and A. niger together, read-out: MIC values) [µM] | MIC ([1]; ATCC16404, text of method and conclusions, unit printed as μg/mL, read-out: MICs) [mg/L] | MIC ([2]; ATCC204305, Table S1, broth microdilution, RPMI-1640 + YNB + 1.8% glucose + 40 mM HEPES pH 7.1, 2 × 10^4 conidia/mL, 24 h, 37 °C, resazurin 0.002%, read-out: MIC) [µM] | MIC ([2]; ATCC204305, one range given for A. fumigatus and A. niger together, read-out: MIC values) [µM] | MIC ([2]; ATCC204305, text of method and conclusions, unit printed as μg/mL, read-out: MICs) [mg/L] | IC50 [3] [µM] | IC50 [4] [µM] | IC50 [5] [µM] | IC50 [6] [µM] |
| --- | --- | --- | --- | --- | --- | --- | --- | --- | --- | --- |
| C[C@@H]1[C@H](O)[C@@H](C)/C=C/C=C/C=C/C=C/C=C/C=C/C=C/[C@H](O[C@@H]2O[C@H](C)[C@@H](O)[C@H](N)[C@@H]2O)C[C@@H]2O[C@](O)(C[C@@H](O)C[C@@H](O)[C@H](O)CC[C@@H](O)C[C@@H](O)CC(=O)O[C@H]1C)C[C@H](O)[C@H]2C(=O)O [Amphotericin B] | 1 | 1 | 1 | 1 | 1 | 1 |  |  |  |  |
| N.N.[Cl][Pt][Cl] [Cisplatin] |  |  |  |  |  |  | 1.9 | 3.8 | 3 | 23.8 |
